Test system: clinical mastitis
Assay: Field trials: intramammary infusion in mastitis
Assay type: in vivo, cow
Details: treated one time on the previous day
Description: CDRMREC was infused up the teat duct of all 4 quarters of a cow that had clinical mastitis in the left hindquarter. […] Additionally, because of a differential in the vacuum when milking the cow, infected discharge from the left hindquarter contaminated the left fore quarter which then began to show symptoms of clinical mastitis (flaking in the milk). The left fore quarter had not been infused with erythromycin. […] All signs of swelling were gone. The milk from all quarters was normal and untainted.
Treatment consisted of six 10 ml intramamery ductal infusions of CDRMREC in the afflicted quarter following each milking.
A Jersey cow was suffering from mastitis in the right forequarter and had received an antibiotic infusion in that quarter. […] The next day, after the PM milking, she received only one 10 ml infusion of CDRMREC in each of her quarters.
Her milk appeared normal. Three days later, the swelling was still present and like a flattened golf ball but the milk tested normal.

In the case of `CC[C@H]1OC(=O)[C@H](C)[C@@H](O[C@H]2C[C@@](C)(OC)[C@@H](O)[C@H](C)O2)[C@H](C)[C@@H](O[C@@H]2O[C@H](C)C[C@H](N(C)C)[C@H]2O)[C@](C)(O)C[C@@H](C)C(=O)[C@H](C)[C@@H](O)[C@]1(C)O` [erythromycin], the “swelling of afflicted quarter” value is reported as “the swelling still remained”.

— patent US6585988B2, “Reaction product of arginine and p-aminobenzoic acid, cosmetic, and human and animal health compositions thereof” (Epicare Ltd., priority 1998, dated 2003)
